The structures appear in SMILES notation. “Also recorded” adds a separate entry of the source.

In assay [1] the test system is Human ECs (HUVECs and HUVECtert). In words: Cell survival test, serum deprivation. In kind it is cell-based. The conditions noted are these: M199 without serum, 24 to 49 hrs, FIG. 6-8. The procedure:
Human ECs (HUVECs and HUVECtert) were cultured Nunclon™ Delta surface flasks (Bartelt; Graz, Austria) in the medium M199 (Gibco) supplemented with 20% fetal calf serum (FCS, Gibco; Carlsbad, Calif., USA), penicillin-streptomycin-amphotericin B (PSF, Lonza; Basel, Switzerland), glutamine (Lonza) and ECGS-heparin (PromoCell; Heidelberg, Germany) in the 95% humidified atmosphere with 5% CO2 at 37° C. For stimulation of cells, they were seeded in the same medium in 96-well Nunclon™ Delta plates (Bartelt). On the day 2, the full medium was exchanged to M199 medium without serum but containing lipids (100 μl per well). In experiments on cell survival against hydrogen peroxide, camptothecin or doxorubicin, the full medium was exchanged to M199 containing 7% FCS and OxPAPC at 40 μg/ml or 50 μg/ml added as a two-fold concentrated solution (50 μl per well). After 20 to 30 min preincubation, toxic agents were added also as two-fold concentrated solutions in M199/7% FCS (50 μl per well). After 16 to 72 hrs of cell incubation at 37° C. and 5% CO2 in 95% humidity, either a nuclei counting of the remained cells or an XTT assay were performed. For the nuclei counting, the medium containing dead cells was aspirated and a Hoechst 33342 solution at the concentration of 1 μg/ml in PBS containing Ca^2+ and Mg^2+ (50 μl per well) was added. After at least 20 min incubation of cells at 37° C. in the cell culture incubator, the stained nuclei were counted using the EnSight plate reader (Perkin-Elmer; Waltham, Mass., USA). An XTT assay with the incubation time of 2 hrs was performed as described (Oskolkova, Godschachner and Bochkov, Inflammation 2017; 40(2): 530-536).
OxPLs protect endothelial cells (ECs) against serum deprivation. ECs were seeded in full M199 medium containing 20% serum. On the day 2, the medium was exchanged to M199 without serum and containing phospholipids at increasing concentrations. After 48 hrs, nuclei of remaining cells were stained by Hoechst and counted. Cells treated with 20% FCS serve as positive and with PBS as negative controls, respectively.
ECs were treated as described in Example 13. After 24 hrs, nuclei of remaining cells were stained by Hoechst 33342 and counted. Cells treated with OxPAPC and 20% FCS serve as positive and with PBS as negative controls, respectively.
ECs were treated with increasing concentrations of OxAA as described in Example 13. After 49 hrs, nuclei of remaining cells were stained by Hoechst 33342 and counted. Cells treated with 20% FCS or with 20 μM OxPAPC serve as positive and with PBS as negative controls, respectively.

The test system of assay [2] is human pulmonary artery endothelial monolayers. The assay is described as follows: Endothelial monolayer permeability, transendothelial electrical resistance (TER). In kind it is cell-based. The note with it: for endothelial barrier-protective effect compared with free iloprost (TER): 0.5 μM, post-treatment 15 min or 5 hrs after LPS 200 ng/ml, monitored over 20 hours, FIG. 4. The procedure:
The cellular barrier properties were analyzed by measurements of transendothelial electrical resistance (TER) across confluent human pulmonary artery endothelial monolayers using an electrical cell-substrate impedance sensing system (Applied Biophysics, USA) as previously described (Birukova A A et al., Am. J. Physiol. Lung Cell. Mol. Physiol. 2006, 290(3):L540-548; Birukova A A et al. FASEB J. 2004, 18(15):1879-1890).

The next assay has as its system LPS-induced chemokine KC. In words: Induction of chemokine KC in plasma of mice injected with LPS. The conditions noted are these: phospholipid 200 μg/mouse i.p. with LPS 20 μg/mouse, blood after 2 and 4 hrs, FIG. 2. In kind it is in vivo. The procedure:
Experiments were performed according to Austrian animal rights law using female C57BL/6J mice (Jackson Laboratories, Germany) of 20 g body weight. Mice were injected i.p. with 200 μl of either with saline, phospholipid (200 μg/mouse), LPS (Escherichia coli O55:B5, 20 μg/mouse) or a combination of LPS and the phospholipid. After 2 and 4 hrs blood was taken retroorbitaly and placed into Eppendorf tubes containing EDTA. After centrifugation of cells, plasma was collected and analyzed by ELISA for murine KC.

The next assay deals with LPS-induced lung injury. The assay is described as follows: LPS-induced lung injury and vascular barrier dysfunction in mice (BAL, TNFα, optical imaging). The class given is in vivo. The note with it: 10 μg/kg i.v. concurrently and 5 hrs after LPS i.t., day 1 and day 3, FIG. 5. On the procedure:
Eight-week old C57B1 mice were purchased from Jackson Laboratories (Bar Harbor, USA). Animals were handled according to the National Institutes of Health Guide for the Care and Use of Laboratory Animals. Bacterial lipopolysaccharide (LPS, 0.63 mg/kg body wt; Escherichia coli O55:B5) or sterile water was injected intratracheally in a small volume (20-30 μl) using a 20-gauge catheter (Exelint International, USA). Iloprost (10 μg/kg), ILO-PC (10 μg/kg) or sterile saline solution was administrated concurrently and 5 hrs after LPS instillation by intravenous injection in the external jugular vein. Animals were sacrificed at day-1 or day-3 by exsanguination under anesthesia. BAL was performed using 1 ml of sterile Hanks balanced salt buffer and measurements of cell count and protein concentration were conducted as previously described (Fu P et al., Eur. Respir. J. 2009, 33:612-624). […]
In vivo optical imaging: Mice were injected with 100 μl of 2 nmol Angiosense 680 EX (a vascular fluorescent blood pool imaging agent purchased from PerkinElmer, USA), intravenously via tail vein. Fluorescence optical imaging was performed in the Integrated Small Animal Imaging Research Resource (iSAIRR) at the University of Chicago using Xenogen IVIS 200 Spectrum (Caliper Life Sciences, USA). […]

With `CCCCC[C@H](O)/C=C/[C@H]1C=CC(=O)[C@H]1C/C=C\CCCC(=O)O` [iPGA2, 8-iso-prostaglandin A2, reference compound], the “protection of ECs against serum deprivation (nuclei counting, Hoechst 33342)” value (“protection of ECs” below) in assay [1] was “not active; also recorded: not protective”.
Still for that read-out and setting: the value for `CCCCCCCCCCCCCCCCOCC(COP(=O)(O)OCC[N+](C)(C)C)NC(=O)CCC/C=C\C[C@@H]1[C@@H](/C=C/[C@@H](O)CCCCC)[C@H](O)C[C@@H]1O` (stereo partly drawn) [KFU-PGF2α, 1-O-Hexadecyl-2-deoxy-2-(prostaglandin F2α)amino-sn-glycero-3-phosphocholine] was “protective effects”.
Turning to `CCCCCCCCCCCCCCCCOCC(COP(=O)(O)OCC[N+](C)(C)C)NC(=O)CCC/C=C\C[C@H]1C(=O)C[C@@H](O)[C@@H]1/C=C/[C@@H](O)CCCCC` (stereo partly shown) [KFU-PGE2, 1-O-Hexadecyl-2-deoxy-2-(prostaglandin E2)amino-sn-glycero-3-phosphocholine], the “protection of ECs” value in assay [1] was “protective effects”. For the same compound, the “endothelial barrier protection/enhancement (TER)” value in assay [2] (cultured endothelial cells, two concentrations, FIG. 3) is reported as “protects endothelial cell barrier”. In addition, the “induction of inflammatory chemokine KC in plasma (LPS-induced inflammation in vivo)” value with LPS-induced chemokine KC was “inhibits induction of inflammatory chemokine KC”.
Turning to `CC#CCC(C)[C@H](O)/C=C/[C@@H]1C2C/C(=C/CCCC(=O)NC(COCCCCCCCCCCCCCCCC)COP(=O)(O)OCC[N+](C)(C)C)CC2C[C@H]1O` (stereo partly shown) [KFU-iloprost, 1-O-Hexadecyl-2-deoxy-2-(iloprost)amino-sn-glycero-3-phosphocholine], the “endothelial barrier-protective effect compared with free iloprost (TER)” value in assay [2] is “stronger endothelial barrier-protective effect than free Iloprost”; in assay [2] (listed as KFU-conjugated iloprost), “stronger and more prolonged barrier-protective activity as compared to free iloprost”. The “protection from LPS-induced lung injury, barrier dysfunction and edema compared with free iloprost” value with LPS-induced lung injury was “better protection from edema in vivo as compared to free molecule”; in the assay on LPS-induced lung injury (listed as KFU-ILO), “better protective response on LPS-induced lung injury and barrier dysfunction compared to a free molecule”.
As for `CCCCCCCCCCCCCCCCOCC(COP(=O)(O)OCC[N+](C)(C)C)NC(=O)CCC/C=C\C[C@@H]1C(=O)C=C[C@@H]1/C=C/[C@@H](O)CCCCC` (stereo partly shown) [KFU-iPGA2, 1-O-Hexadecyl-2-deoxy-2-(8-iso-prostaglandin A2)amino-sn-glycero-3-phosphocholine], the “protection of ECs” value in assay [1] (listed as iPGA2-NH-PC) is reported as “protective effects; also recorded: protect ECs against serum deprivation”.

(Values after patent US10954255B2, “Phospholipid analogues” (Karl-Franzens-Universitaet Graz, priority 2018, dated 2021).)
